According to patent US20050058733A1, “Health food products” (Daicho Kikaku Incorporated Company, priority 2001, published 2005):

Legend:
[1] = test system: patients with muscle disorders that occurred with aging; experiment: tablets given to aged patients with muscle disorders (walking difficulties, proctoptosia, backaches, limb pains); format: in vivo, human; conditions: single regular dose of drugs admixed with one of the substances, without curcumin
Description: In Western medicine, it has been understood that proctoptosia and leg, lumbus and arm aches are attributable only to hematogenous disorders and resultant inflammation at local sites. […] Thus, it can be understood that these disorders are attributed to insufficient communication of brain commands to local sites and therefore the hematogenous disorders and onset of inflammation are problems caused by abnormal motions of muscles due to incomplete communication of brain commands.

adrenaline secretion = experiment: animal experiments using mice: secretomotory action on adrenaline, seen as blood glucose elevation; format: in vivo
Description: No studies have been conducted on the efficacy of curcumin, zingerone, or shogaol on the stimulation of adrenaline secretion.

C[C@H](CCC(=O)O)[C@H]1CC[C@H]2[C@@H]3[C@H](O)C[C@@H]4C[C@H](O)CC[C@]4(C)[C@H]3C[C@H](O)[C@]12C [cholic acid]
amelioration of proctoptosia and leg, lumbus and arm aches [1]: not significantly ameliorated

COc1cc(/C=C/C(=O)/C=C(O)/C=C/c2ccc(O)c(OC)c2)ccc1O [curcumin]
blood glucose levels (secretomotory action on adrenaline) (adrenaline secretion): remarkably elevated

C[C@H](CC[C@@H](O)C(CO)CO)C1CCC2C3C(C[C@H](O)[C@@]21C)[C@@]1(C)CC[C@@H](O)CC1C[C@H]3O (some centres unmarked) [scymnol, Scymnol]
amelioration of proctoptosia and leg, lumbus and arm aches [1]: not significantly ameliorated

CCCCC/C=C/C(=O)CCc1ccc(O)c(OC)c1 [shogaol, (6)-shogaol]
blood glucose levels (secretomotory action on adrenaline) (adrenaline secretion): remarkably elevated

COc1cc(CCC(C)=O)ccc1O [zingerone]
blood glucose levels (secretomotory action on adrenaline) (adrenaline secretion): remarkably elevated
